According to patent US20070258986A1, “Targeted Delivery System for Bioactive Agents” (Govt of the US as represented by the secretary,, priority 2003, published 2007):

Tests used:
Y289L GalT [1] = biological target: T1, Y289L GalT (Bos taurus, UniProt P08037, Y289L); experiment: Labeling of the O-GlcNAc peptide with ketone analogue 1 by mutant Y289L GalT (LC-MS); format: biochemical, bovine; settings: peptide TAPTS(O-GlcNAc)TIAPG 10 μM, analogue 1 1 mM, 6 h at 4° C.
T1 construct: the catalytic domain of GalT has a tyrosine exchanged with another amino acid; made in house
T1 sequence (P08037 130-402 Y289L limits assumed): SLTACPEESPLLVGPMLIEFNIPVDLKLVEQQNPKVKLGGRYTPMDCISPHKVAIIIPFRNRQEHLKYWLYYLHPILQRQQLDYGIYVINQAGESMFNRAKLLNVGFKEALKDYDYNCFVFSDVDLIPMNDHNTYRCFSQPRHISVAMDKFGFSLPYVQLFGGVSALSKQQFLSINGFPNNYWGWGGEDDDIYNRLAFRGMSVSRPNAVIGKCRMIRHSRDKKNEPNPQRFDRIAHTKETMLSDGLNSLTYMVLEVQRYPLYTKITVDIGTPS
Experimental: Labeling of the O-GlcNAc Peptide: The peptide TAPTS(O-GlcNAc)TIAPG (10 μM was dissolved in 25 mM MOPS buffer, pH 6.7 containing 5 mM MnCl2 and 8 μM reference peptide (ThermoFinnigan, San Jose, Calif.). Ketone analogue 1 and mutant Y289L GalT were added to final concentrations of 1 mM and 100 ng/μL, respectively. Prior to enzyme addition, an aliquot of the reaction was removed as an initial time point for LC-MS analysis. Reactions were incubated at 4° C. for 6 h, after which an aliquot of the reaction mixture was removed for product analysis by LC-MS. The remainder of the reaction was diluted 5-fold into PBS (final concentration: 10.1 mM Na2HPO4, 1.76 mM KH2 HPO4, 137 mM NaCl, 2.7 mM KCl, pH 6.7), and N-(aminooxyacetyl)-N′-(D-biotinoyl) hydrazine (Molecular Probes, Eugene, Oreg.) was added to a final concentration of 12 mM. After 8 h at 25° C., the extent of biotin-oxime product was measured by LC-MS. […] Labeling reactions with wild-type GalT were performed identically, with the exception that reactions were incubated at 37° C. for 12 h. […]
For the aminooxy biotin reaction, formation of the oxime product was monitored using an extracted ion chromatogram within the mass range 1319.0-1321.0 m/z and 1633.0-1635.5 m/z, which was generated post-acquisition via the Xcalibur™ software. […]

Y289L GalT [2] = biological target: T1, Y289L GalT; experiment: Labeling of O-GlcNAc glycosylated CREB protein with analogue 1 and Y289L GalT, aminooxy biotin, streptavidin-HRP blot; format: biochemical, bovine; settings: recombinant CREB from Sf9 cells, analogue 1 1 mM, 12 h at 4° C., then aminooxy biotin
Experimental: Labeling of CREB protein: Recombinant O-GlcNAc glycosylated CREB was generated by coexpression of CREB with O-GlcNAc glycosyltransferase in Sf9 cells as described previously (Lamarre-Vincent et al., 2003). 500 ng of CREB in 20 mM HEPES pH 7.9, 100 mM KCl, 0.2 mM EDTA, 15% glycerol was added to 50 mM MOPS pH 6.45 containing 5 mM MnCl2 and 0.25 mU/μL alkaline phosphatase (Unverzagt et al., 1990). Analogue 1 and Y289L GalT were then added to final concentrations of 1 mM and 40 ng/μL, respectively. Control reactions without enzyme or analogue 1 were treated identically. Following incubation at 12 h at 4° C., the reactions were diluted 5-fold into PBS containing protease inhibitors (5 μg/mL pepstatin, 5 μg/mL chymostatin, 20/μg/mL leupeptin, 20 μg/mL aprotinin, 20 μg/mL antipain, 0.2 mM PMSF). Aminooxy biotin was added to a final concentration of 2 mM, and the biotinylation reactions were incubated with gentle shaking for 12 h at 37° C. Reactions were aliquoted for analysis and stopped by boiling in SDS-PAGE loading dye. Proteins were resolved by 10% SDS-PAGE, electrophoretically transferred to nitrocellulose, and probed with streptavidin-HRP. […]

## CC(=O)C[C@H]1[C@@H](OP(=O)(O)OP(=O)(O)OC[C@H]2O[C@@H](n3ccc(=O)[nH]c3=O)[C@H](O)[C@@H]2O)O[C@H](CO)[C@H](O)[C@@H]1O.N.N [analogue 1, Uridine 5′-diphospho-2-acetonyl-2deoxy-α-D-galactopyranose diammonium salt]
Y289L GalT [1]
  conversion of the peptide to the ketone-labeled product: complete conversion
Y289L GalT [2]; diammonium salt
  labeling of glycosylated CREB (chemiluminescence): Strong, selective labeling
Y289L GalT [2]; listed as 1, diammonium salt
  labeling of glycosylated CREB (chemiluminescence): Strong labeling
